According to ChEMBL document CHEMBL1123787, “Radioiodinated p-iodoclonidine: a high-affinity probe for the alpha 2-adrenergic receptor” (J Med Chem, 1987):

Biological target: T1, Adrenergic receptor alpha-2 (Homo sapiens, UniProt P08913+P18825+P18089)
T1 sequence (P08913 whole entry): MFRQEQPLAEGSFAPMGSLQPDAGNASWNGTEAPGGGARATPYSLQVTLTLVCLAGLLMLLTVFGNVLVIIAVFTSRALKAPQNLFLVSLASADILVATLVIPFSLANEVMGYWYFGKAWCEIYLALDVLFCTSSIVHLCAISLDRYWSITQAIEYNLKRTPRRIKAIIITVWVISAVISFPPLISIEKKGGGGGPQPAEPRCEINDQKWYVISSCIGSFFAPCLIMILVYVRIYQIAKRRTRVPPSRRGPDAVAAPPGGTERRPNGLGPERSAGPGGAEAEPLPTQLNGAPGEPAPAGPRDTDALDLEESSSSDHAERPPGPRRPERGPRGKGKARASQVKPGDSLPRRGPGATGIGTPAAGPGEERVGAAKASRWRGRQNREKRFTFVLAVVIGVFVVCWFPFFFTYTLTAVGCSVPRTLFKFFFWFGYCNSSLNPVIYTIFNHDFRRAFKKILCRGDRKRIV
T1 sequence (P18825 whole entry): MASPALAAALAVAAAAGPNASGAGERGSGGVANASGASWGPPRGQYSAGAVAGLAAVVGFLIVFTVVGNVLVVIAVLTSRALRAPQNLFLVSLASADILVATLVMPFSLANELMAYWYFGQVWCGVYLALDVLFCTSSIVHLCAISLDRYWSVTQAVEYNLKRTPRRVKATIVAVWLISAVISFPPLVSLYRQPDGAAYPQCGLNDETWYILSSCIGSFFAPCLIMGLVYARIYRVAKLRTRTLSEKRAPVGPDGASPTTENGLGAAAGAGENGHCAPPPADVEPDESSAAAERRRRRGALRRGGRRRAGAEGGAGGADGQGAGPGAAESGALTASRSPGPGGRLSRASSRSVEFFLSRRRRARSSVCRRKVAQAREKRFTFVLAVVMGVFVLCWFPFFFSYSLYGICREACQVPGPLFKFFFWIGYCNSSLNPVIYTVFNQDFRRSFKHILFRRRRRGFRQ
T1 sequence (P18089 whole entry): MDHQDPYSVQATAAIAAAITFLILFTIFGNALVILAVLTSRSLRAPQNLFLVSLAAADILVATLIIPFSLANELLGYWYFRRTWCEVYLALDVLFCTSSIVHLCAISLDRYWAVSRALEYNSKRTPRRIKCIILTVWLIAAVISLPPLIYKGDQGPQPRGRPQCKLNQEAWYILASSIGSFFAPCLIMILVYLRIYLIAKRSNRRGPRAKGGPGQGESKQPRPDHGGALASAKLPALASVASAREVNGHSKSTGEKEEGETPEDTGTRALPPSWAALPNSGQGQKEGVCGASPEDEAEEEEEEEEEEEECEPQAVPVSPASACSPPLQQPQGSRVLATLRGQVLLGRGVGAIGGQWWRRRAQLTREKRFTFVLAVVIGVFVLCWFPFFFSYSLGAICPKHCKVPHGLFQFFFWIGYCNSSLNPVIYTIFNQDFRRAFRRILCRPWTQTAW

SMILES | IC50
O=[N+]([O-])c1cc(Cl)c(N=C2NCCN2)c(Cl)c1 | 10 µM
Clc1cc(N=NN2CCCC2)cc(Cl)c1NC1=NCCN1 | 2 µM
